# Assay results as given in US20210147866A1, “PLANTS HAVING INCREASED TOLERANCE TO HERBICIDES” (BASF SE, priority 2017, published 2021).
# Columns and labels:
# [1] = tested on: Transgenic MC24 plants expressing the Scenedesmus obliquus HPPD full length coding sequence (SEQ ID NO: 47); assay: Greenhouse post-emergence herbicide tolerance test, transgenic lines expressing full length Scenedesmus obliquus HPPD (F363I); format: in vivo, Arabidopsis thaliana
# Text: (§1) Additionally, T1 and T2 transgenic Arabidopsis plants can be tested for improved tolerance to HPPD-inhibiting benzamide herbicides in a greenhouse studies. Herbicide injury scoring is done 2-3 weeks after treatment and is rated on a scale of 0 to 100%, 0% being no injury and 100% being complete death.
# (§2) The seedlings are then transfered to pots with a diameter of 10 cm and grown in soil to the nine leaf stage.
# (§3) Preselected transgenic Arabidopsis plants expressing heterologous Scenedesmus obliquus HPPD mutant enzymes as defined in Seq ID No. 48 and Seq ID No. 50 are tested for tolerance against HPPD-inhibiting 4-bromo-3-(dicyclopropylcarbamoylamino)-6-fluoro-2-methyl-N(1-methyltetrazol-5-yl) benzamide herbicide in greenhouse experiments.
# (§4) Transgenic lines are tested expressing heterologous Scenedesmus obliquus HPPD coding sequences under control of the constitutive parsley ubiquitin promoter and the nos terminator. One construct contains the full length Scenedesmus obliquus HPPD enzyme (Seq ID No. 47) while in a second construct the naturally occurring C-terminal insertion of 36 amino acids at position 442-477 is deleted (Seq ID No. 49). Both coding sequences carry the mutation F363I.
# (§5) Broadleaf plants are more sensitive to HPPD inhibitors when applied post-emergence as compared to a pre-emergence testing. Therefore, transgenic lines are tested in a post emergence setting at about the nine leaf stage.
# (§6) For the herbicide treatment of transgenic lines 4-bromo-3-(dicyclopropylcarbamoylamino)-6-fluoro-2-methyl-N-(1-methyltetrazol-5-yl) benzamide is applied at use rates of 25, 50 and 100 g/ha (see FIG. 3)
# (§7) Treated plants are assessed 14 days after treatment (DAT) in the post-emergence setting.
# [2] = tested on: Arabidopsis thaliana MC24; assay: Greenhouse dose response, post-emergence spray of untransformed motherline; format: in vivo; settings: 9 leaf stage, rates from 0.8 to 100 g/ha, 14 days after treatment (FIG. 2)
# [3] = tested on: Transgenic MC24 plants expressing the short Scenedesmus obliquus HPPD (SEQ ID NO:50); assay: Greenhouse post-emergence herbicide tolerance test, transgenic lines expressing short Scenedesmus obliquus HPPD (F363I, amino acids 442-477 deleted); format: in vivo, Arabidopsis thaliana
# Text: as §1, §2, §3, §4, §5, §6, §7
structure (smiles),measurement,setting,value
Cc1c(NC(=O)N(C2CC2)C2CC2)c(Br)cc(F)c1C(=O)Nc1nnnn1C [4-bromo-3-(dicyclopropylcarbamoylamino)-6-fluoro-2-methyl-N-(1-methyltetrazol-5-yl) benzamide],herbicide tolerance of full length sequence compared to HPPD not containing the C-terminal loop,"[1]; 25-100 g/ha, 14 days after treatment",slightly better herbicide tolerance
same,herbicide tolerance of transgenic lines,"[1]; full length S. obliquus HPPD F363I, 25-100 g/ha, post-emergence, 9 leaf stage, 14 DAT (FIG. 4)",show herbicide tolerance
same,injury of plants with S. obliquus HPPD gene carrying F363I (overall assessment),"[1]; full length construct, shown rates 25, 50 and 100 g/ha, 14 days after treatment",very little to no injury
same,sensitivity of untransformed MC24 plants towards the herbicide (plant death),[2],die even at the lowest rate
same,herbicide tolerance of transgenic lines,"[3]; short S. obliquus HPPD F363I, 25 to 100 g/ha, post-emergence, 9 leaf stage, 14 DAT (FIG. 3)",show herbicide tolerance
same,herbicidal injury of transgenic lines,"[3]; short S. obliquus HPPD F363I, 50 to 100 g/ha, post-emergence, 14 DAT (FIG. 3)",Little herbicidal injury
same,injury of plants with S. obliquus HPPD gene carrying F363I (overall assessment),"[3]; short construct, shown rates 25, 50 and 100 g/ha, 14 days after treatment",very little to no injury
